Measured values published in PubChem BioAssay AID1963834 (Molecular Pharmacology Branch, DTP, NCI, 2024).
pIC50: −log10 of the molar value.

Tested on: 873145-292-R-J1-PDC complex spheroid viability
Experiment: Anticancer human tumor 873145-292-R-J1-PDC patient-derived renal clear cell carcinoma cell line growth inhibition [POLQ]
Details: for pIC50: curve of first compound; for viability, T/C: stronger effect = lower value
Procedure, shortened: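 Three-cell-type spheroids modelling solid tumor plus stroma served as the readout system; POL inhibitors were tested individually and in combination, concentration ranges set by clinical Cmax where known.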

[1] = second compound 0.0316 µM, first compound 0.0316 µM
[2] = second compound 0.0316 µM, first compound 0.1 µM
[3] = second compound 0.0316 µM, first compound 0.316 µM
[4] = second compound 0.0316 µM, first compound 1 µM
[5] = second compound 0.0316 µM, first compound 3.16 µM
[6] = second compound 0.0316 µM, first compound 10 µM
[7] = second compound 0.1 µM, first compound 0.0316 µM
[8] = second compound 0.1 µM, first compound 0.1 µM
[9] = second compound 0.1 µM, first compound 0.316 µM
[10] = second compound 0.1 µM, first compound 1 µM
[11] = second compound 0.1 µM, first compound 3.16 µM
[12] = second compound 0.1 µM, first compound 10 µM
[13] = second compound 0.316 µM, first compound 0.0316 µM
[14] = second compound 0.316 µM, first compound 0.1 µM
[15] = second compound 0.316 µM, first compound 0.316 µM
[16] = second compound 0.316 µM, first compound 1 µM
[17] = second compound 0.316 µM, first compound 3.16 µM
[18] = second compound 0.316 µM, first compound 10 µM
[19] = second compound 1 µM, first compound 0.0316 µM
[20] = second compound 1 µM, first compound 0.1 µM
[21] = second compound 1 µM, first compound 0.316 µM
[22] = second compound 1 µM, first compound 1 µM
[23] = second compound 1 µM, first compound 3.16 µM
[24] = second compound 1 µM, first compound 10 µM
[25] = second compound 3.16 µM, first compound 0.0316 µM
[26] = second compound 3.16 µM, first compound 0.1 µM
[27] = second compound 3.16 µM, first compound 0.316 µM
[28] = second compound 3.16 µM, first compound 1 µM
[29] = second compound 3.16 µM, first compound 3.16 µM
[30] = second compound 3.16 µM, first compound 10 µM
[31] = second compound 10 µM, first compound 0.0316 µM
[32] = second compound 10 µM, first compound 0.1 µM
[33] = second compound 10 µM, first compound 0.316 µM
[34] = second compound 10 µM, first compound 1 µM
[35] = second compound 10 µM, first compound 3.16 µM
[36] = second compound 10 µM, first compound 10 µM
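Note: spheroids exposed to compounds for 7 days before viability readout.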
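Throughout, for viability, T/C: luminescence signal used as surrogate for viable cell content; 100% = DMSO vehicle control viability.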

CC1COCCN1c1cc(-c2ccnn2C)c2ccnc(-c3ccn[nH]3)c2n1 (stereo not drawn) + Cc1cccc(N(C)C(=O)C2C(O)CCN2c2nc(C)cc(C(F)(F)F)c2C#N)c1
pIC50 (second compound 0.0316 µM): 5.97 | pIC50 (second compound 0.1 µM): 5.80 | pIC50 (second compound 0.316 µM): 5.81 | pIC50 (second compound 1 µM): 5.82 | pIC50 (second compound 3.16 µM): 6.01 | pIC50 (second compound 10 µM): 6.05 | viability, T/C [1]: 90.6% | viability, T/C [2]: 79.1% | viability, T/C [3]: 68.1% | viability, T/C [4]: 46.1% | viability, T/C [5]: 48.6% | viability, T/C [6]: 43.1% | viability, T/C [7]: 99.3% | viability, T/C [8]: 87.7% | viability, T/C [9]: 74.3% | viability, T/C [10]: 54.5% | viability, T/C [11]: 39.9% | viability, T/C [12]: 45.4% | viability, T/C [13]: 95.1% | viability, T/C [14]: 90.6% | viability, T/C [15]: 69% | viability, T/C [16]: 53.3% | viability, T/C [17]: 47% | viability, T/C [18]: 36.1% | viability, T/C [19]: 92.3% | viability, T/C [20]: 80.5% | viability, T/C [21]: 67.7% | viability, T/C [22]: 50.4% | viability, T/C [23]: 46.6% | viability, T/C [24]: 44.4% | viability, T/C [25]: 101% | viability, T/C [26]: 88% | viability, T/C [27]: 71.4% | viability, T/C [28]: 47% | viability, T/C [29]: 44.1% | viability, T/C [30]: 40.5% | viability, T/C [31]: 91.6% | viability, T/C [32]: 82.9% | viability, T/C [33]: 69% | viability, T/C [34]: 46.5% | viability, T/C [35]: 42% | viability, T/C [36]: 40.2%

CC1COCCN1c1cc(C2(S(C)(=N)=O)CC2)nc(-c2ccnc3[nH]ccc23)n1 (stereo not drawn) + Cc1cccc(N(C)C(=O)C2C(O)CCN2c2nc(C)cc(C(F)(F)F)c2C#N)c1
pIC50 (second compound 0.0316 µM): < 5.00 | pIC50 (second compound 0.1 µM): < 5.00 | pIC50 (second compound 0.316 µM): < 5.00 | pIC50 (second compound 1 µM): < 5.00 | pIC50 (second compound 3.16 µM): < 5.00 | pIC50 (second compound 10 µM): < 5.00 | viability, T/C [1]: 98.1% | viability, T/C [2]: 102% | viability, T/C [3]: 101% | viability, T/C [4]: 95.4% | viability, T/C [5]: 83.6% | viability, T/C [6]: 64.5% | viability, T/C [7]: 104% | viability, T/C [8]: 98.5% | viability, T/C [9]: 90.1% | viability, T/C [10]: 102% | viability, T/C [11]: 75.1% | viability, T/C [12]: 59.4% | viability, T/C [13]: 115% | viability, T/C [14]: 96.6% | viability, T/C [15]: 98.8% | viability, T/C [16]: 87.1% | viability, T/C [17]: 92% | viability, T/C [18]: 60.1% | viability, T/C [19]: 101% | viability, T/C [20]: 99.3% | viability, T/C [21]: 93.5% | viability, T/C [22]: 96% | viability, T/C [23]: 75.3% | viability, T/C [24]: 54.5% | viability, T/C [25]: 99.4% | viability, T/C [26]: 99.6% | viability, T/C [27]: 99.6% | viability, T/C [28]: 87.2% | viability, T/C [29]: 77.4% | viability, T/C [30]: 55.4% | viability, T/C [31]: 90.8% | viability, T/C [32]: 96.3% | viability, T/C [33]: 98.4% | viability, T/C [34]: 91.5% | viability, T/C [35]: 64.9% | viability, T/C [36]: 68.8%

CCCS(=O)(=O)Nc1ccc(F)c(C(=O)c2c[nH]c3ncc(-c4ccc(Cl)cc4)cc23)c1F + Cc1cccc(N(C)C(=O)C2C(O)CCN2c2nc(C)cc(C(F)(F)F)c2C#N)c1
pIC50 (second compound 0.0316 µM): < 5.00 | pIC50 (second compound 0.1 µM): < 5.00 | pIC50 (second compound 0.316 µM): < 5.00 | pIC50 (second compound 1 µM): < 5.00 | pIC50 (second compound 3.16 µM): < 5.00 | pIC50 (second compound 10 µM): < 5.00 | viability, T/C [1]: 115% | viability, T/C [2]: 110% | viability, T/C [3]: 113% | viability, T/C [4]: 118% | viability, T/C [5]: 89.9% | viability, T/C [6]: 79.3% | viability, T/C [7]: 105% | viability, T/C [8]: 106% | viability, T/C [9]: 90.8% | viability, T/C [10]: 121% | viability, T/C [11]: 105% | viability, T/C [12]: 67.6% | viability, T/C [13]: 117% | viability, T/C [14]: 125% | viability, T/C [15]: 94.4% | viability, T/C [16]: 112% | viability, T/C [17]: 97.4% | viability, T/C [18]: 80.6% | viability, T/C [19]: 98.6% | viability, T/C [20]: 102% | viability, T/C [21]: 103% | viability, T/C [22]: 106% | viability, T/C [23]: 105% | viability, T/C [24]: 68.6% | viability, T/C [25]: 101% | viability, T/C [26]: 111% | viability, T/C [27]: 109% | viability, T/C [28]: 107% | viability, T/C [29]: 105% | viability, T/C [30]: 83.8% | viability, T/C [31]: 103% | viability, T/C [32]: 101% | viability, T/C [33]: 96.1% | viability, T/C [34]: 109% | viability, T/C [35]: 96.8% | viability, T/C [36]: 81.1%

Cn1ncnc1[C@H]1c2n[nH]c(=O)c3cc(F)cc(c23)N[C@@H]1c1ccc(F)cc1 + Cc1cccc(N(C)C(=O)C2C(O)CCN2c2nc(C)cc(C(F)(F)F)c2C#N)c1
pIC50 (second compound 0.0316 µM): < 7.00 | pIC50 (second compound 0.1 µM): < 7.00 | pIC50 (second compound 0.316 µM): < 7.00 | pIC50 (second compound 1 µM): < 7.00 | pIC50 (second compound 3.16 µM): < 7.00 | pIC50 (second compound 10 µM): < 7.00 | viability, T/C (second compound 0.0316 µM, first compound 0.000316 µM): 104% | viability, T/C (second compound 0.0316 µM, first compound 0.001 µM): 94% | viability, T/C (second compound 0.0316 µM, first compound 0.00316 µM): 102% | viability, T/C (second compound 0.0316 µM, first compound 0.01 µM): 97.5% | viability, T/C [1]: 95.7% | viability, T/C [2]: 98% | viability, T/C (second compound 0.1 µM, first compound 0.000316 µM): 104% | viability, T/C (second compound 0.1 µM, first compound 0.001 µM): 103% | viability, T/C (second compound 0.1 µM, first compound 0.00316 µM): 91.6% | viability, T/C (second compound 0.1 µM, first compound 0.01 µM): 93.9% | viability, T/C [7]: 105% | viability, T/C [8]: 88.5% | viability, T/C (second compound 0.316 µM, first compound 0.000316 µM): 112% | viability, T/C (second compound 0.316 µM, first compound 0.001 µM): 99% | viability, T/C (second compound 0.316 µM, first compound 0.00316 µM): 87.6% | viability, T/C (second compound 0.316 µM, first compound 0.01 µM): 89.6% | viability, T/C [13]: 91.7% | viability, T/C [14]: 89.3% | viability, T/C (second compound 1 µM, first compound 0.000316 µM): 102% | viability, T/C (second compound 1 µM, first compound 0.001 µM): 95.2% | viability, T/C (second compound 1 µM, first compound 0.00316 µM): 105% | viability, T/C (second compound 1 µM, first compound 0.01 µM): 97% | viability, T/C [19]: 97.7% | viability, T/C [20]: 96.3% | viability, T/C (second compound 3.16 µM, first compound 0.000316 µM): 97% | viability, T/C (second compound 3.16 µM, first compound 0.001 µM): 96.3% | viability, T/C (second compound 3.16 µM, first compound 0.00316 µM): 105% | viability, T/C (second compound 3.16 µM, first compound 0.01 µM): 93.5% | viability, T/C [25]: 99.8% | viability, T/C [26]: 91.8% | viability, T/C (second compound 10 µM, first compound 0.000316 µM): 103% | viability, T/C (second compound 10 µM, first compound 0.001 µM): 89.7% | viability, T/C (second compound 10 µM, first compound 0.00316 µM): 109% | viability, T/C (second compound 10 µM, first compound 0.01 µM): 90.3% | viability, T/C [31]: 97.8% | viability, T/C [32]: 86.9%
